Test results from PMC8960621, “Solution speciation and human serum protein binding of indium(III) complexes of 8-hydroxyquinoline, deferiprone and maltol” (Journal of Biological Inorganic Chemistry, 2022).

Columns and labels:
[1] = biological target: T1, apoTf (Homo sapiens, UniProt P02787); experiment: Interaction with (apo)Tf: ligand displacement and binding of the intact complex (UV-vis, fluorescence, ultrafiltration); conditions: pH 7.40
T1 construct: purchased Sigma-Aldrich T2036
Description: Therefore, UV–vis and fluorescence emission spectra of InQ3 were recorded in the presence of increasing amounts of apoTf (Fig. 5a, b). After a short initial phase, the absorbance band of InQ3 is reduced gradually by the addition of the protein, while the development of the new band at lower wavelengths (at ca. 310 nm) refers to the liberation of HQ. Namely, there is a competition for In(III) ion between the ligand and the iron-binding sites of apoTf. Absorbance values depicted at 370 nm and 310 nm (Fig. 5c) saturate roughly to the corresponding values of the free ligand and outline a sigmoidal shape. Fluorescence intensity of the same sample set (Fig. 5b, d) was enhanced and moderately blue shifted (from λmax = 540 nm to 532 nm) until the addition of ca. 0.2 equiv. apoTf. […] Then, by the addition of more apoTf, intensities decreased and λmax shifted further to shorter wavelengths (527 nm). […] Based on this and the results of apoTf quenching (vide supra) protein binding of the non-dissociated complex is presumed. This is further supported by fluorescence lifetime measurements; where new lifetime components τ3 = 4.7 ± 0.2 ns and τ4 = 13.8 ± 0.4 ns appeared for InQ3 in the presence of 0.1 – 0.3 equiv. apoTf (after 1 min waiting time). […] Here, the sigmoid shape of the UV–vis absorbance was seen again (Fig. S5) and the shifted inflection point in comparison to the titration with apoTf underlines the lower In(III) binding capacity of Tf. […]
In the case of InD3, the absorbance bands of the metal complex and apoTf overlap in great extent, however, spectra can be deconvoluted to the spectra of InD3, deferiprone and apoTf (see Fig S6 for details), and molar fractions of the respective species can be calculated (Fig. 6). Ultrafiltration experiments were carried out as well for the InD3 – apoTf system and the non-protein bound LMM fractions were analyzed by UV–vis spectrophotometry (Fig. 6). […] The complex dissociated in line with the addition of apoTf and a practically quantitative displacement of deferiprone seems to take place by the addition of ca. 0.5 equiv. apoTf. […]

[2] = Speciation in threefold diluted human blood serum by UV-vis; type: in vitro ADME; conditions: 10 µM complex
From the text: With this knowledge, samples prepared in blood serum were studied by UV–vis spectrometry to count the significance of HMM and LMM serum components in the speciation of the complexes (Figs. 9 and S8). Unfortunately, fluorescence spectra could not be recorded due to the significant light scattering of the samples. […] UV–vis spectra in Fig. 9 resemble the behaviour observed for the complex – HSA – Tf ternary systems (Fig. S7) with some important differences. […] This refers to the altered coordination sphere of the metal complex. […] Keeping in mind the difficulties of interpretation of UV–vis spectroscopic data obtained in complex matrices, some assumptions can be made relying on the results of binary and ternary systems. Significant Tf binding of In(III) in blood serum is likely, while GaQ3 interacts less with this protein. […] Formation of HQ – Mg(II) complex is not feasible even at physiological Mg(II) ion levels (0.7–1.0 mM) based on the available stability constants. Zn(II) ion forms higher stability complexes with HQ as Mg(II) and could compete for HQ with In(III) or Ga(III) if its total blood plasma concentration (10–28 μM) would be freely available. […]
For (apo)Tf containing samples, complex concentrations were 20 μM and 0–2.5 equiv. protein was added. Reference spectra for the complexes, ligands and protein were recorded as well. […]

T1 sequence (P02787 20-698): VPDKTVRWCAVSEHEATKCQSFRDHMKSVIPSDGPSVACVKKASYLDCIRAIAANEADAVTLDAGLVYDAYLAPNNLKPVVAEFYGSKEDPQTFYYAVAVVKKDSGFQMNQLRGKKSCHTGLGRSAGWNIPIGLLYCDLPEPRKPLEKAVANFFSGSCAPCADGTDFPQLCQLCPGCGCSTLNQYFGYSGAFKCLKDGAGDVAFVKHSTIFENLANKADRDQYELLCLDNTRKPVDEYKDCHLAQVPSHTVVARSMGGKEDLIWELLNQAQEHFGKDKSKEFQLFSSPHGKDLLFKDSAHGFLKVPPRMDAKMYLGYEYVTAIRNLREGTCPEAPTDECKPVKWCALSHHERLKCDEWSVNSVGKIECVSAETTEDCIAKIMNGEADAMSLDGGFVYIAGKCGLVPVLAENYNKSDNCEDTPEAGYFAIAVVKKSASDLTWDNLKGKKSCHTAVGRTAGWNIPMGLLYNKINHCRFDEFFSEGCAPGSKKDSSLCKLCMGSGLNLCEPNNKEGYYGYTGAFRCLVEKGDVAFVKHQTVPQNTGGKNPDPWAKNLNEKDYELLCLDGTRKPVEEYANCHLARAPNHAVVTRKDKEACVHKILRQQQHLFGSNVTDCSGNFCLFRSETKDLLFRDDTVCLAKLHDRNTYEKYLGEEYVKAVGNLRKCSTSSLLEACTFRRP

[Ga+3].[O-]c1cccc2cccnc12.[O-]c1cccc2cccnc12.[O-]c1cccc2cccnc12 [GaQ3, Tris(8-Quinolinolato)gallium(III), reference compound]
binding via intermolecular interactions to apoTf (and Tf) ([1]; UV–vis and fluorescence): no such binding was observed | time to reach chemical equilibrium in serum [2]: ≤ 10 min

[In+3].[O-]c1cccc2cccnc12.[O-]c1cccc2cccnc12.[O-]c1cccc2cccnc12 [InQ3, Tris(8-Quinolinolato)indium(III)]
time to reach chemical equilibrium in serum [2]: 240 min

Cc1c([O-])c(=O)ccn1C.Cc1c([O-])c(=O)ccn1C.Cc1c([O-])c(=O)ccn1C.[In+3] [InD3]
apoTf needed for practically quantitative displacement of the ligand ([1]; UV–vis deconvolution and ultrafiltration): ca. 0.5 equiv.
